Source: patent publication US11608359B2, “Compounds and methods for treating tight junction permeabtility” (9 Meters Biopharma, Inc., priority 2018, dated 2023)
Where no end group is shown, it is not given here.

Legend:
tight junctions = test: activity as tight junction regulators; conditions: for activity as tight junction regulator: peptide fragment alone
[1] = clinical trials, particularly lower doses (e.g., 0.5 mg dose); cited from earlier work

Substance	activity as tight junction regulator (tight junctions)	activity of full length Larazotide as tight junction regulator (tight junctions; mixed with the two fragments GVLVQPG and VLVQPG)	benefit at reducing CeD symptoms [1]
VLVQPG	inactive	–	–
GVLVQP (Synthetic polymer.)	inactive	–	–
VLVQP (Synthetic polymer.)	inactive	–	–
GVLVQPG [Larazotide-derived fragment missing N-terminal glycine]	inactive	–	–
GGVLVQPG [Larazotide]	–	completely abolished	significant benefit
